Assays:
p38a/PRAK = p38a/PRAK (Homo sapiens (Human), UniProt Q16539); assay: biochemical; conditions: 10-point 1:3 dilution, top dose 300 μM; 10 μM ATP, 2 h incubation; read-out: p38a/PRAK Enzyme pIC50 (converted)
Method in brief: (§1)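 Recombinant N-terminal GST-tagged MK2 (F46-H400) or PRAK (M1-Q471), expressed in E. coli, were activated by p38. Activity read as phosphorylation of FITC-conjugated HSP27 peptide. IC50 taken as half-maximal inhibition of activation from 10-point 1:3 dilutions, top dose 1 or 10 μM for MK2 and 300 μM for PRAK.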

p38a/MK2 = p38a/MK2 (Homo sapiens (Human), UniProt P49137+Q16539); assay: biochemical; conditions: 10-point 1:3 dilution, top dose 1 μM; 10 μM ATP, 2 h incubation; read-out: p38a/MK2 (1 μM) Enzyme pIC50 (converted)
Sequence of p38a/MK2 (Q16539 whole entry): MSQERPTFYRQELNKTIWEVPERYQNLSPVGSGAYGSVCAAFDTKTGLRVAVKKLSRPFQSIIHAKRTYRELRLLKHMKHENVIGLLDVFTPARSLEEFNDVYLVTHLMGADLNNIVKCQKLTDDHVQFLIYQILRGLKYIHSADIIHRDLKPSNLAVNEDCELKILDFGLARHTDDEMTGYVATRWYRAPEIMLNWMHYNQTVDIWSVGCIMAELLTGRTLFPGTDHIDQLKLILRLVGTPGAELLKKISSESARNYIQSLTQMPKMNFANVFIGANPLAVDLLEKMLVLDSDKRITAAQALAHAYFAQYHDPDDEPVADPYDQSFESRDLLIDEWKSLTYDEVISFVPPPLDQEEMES
Sequence of p38a/MK2 (P49137 46-400): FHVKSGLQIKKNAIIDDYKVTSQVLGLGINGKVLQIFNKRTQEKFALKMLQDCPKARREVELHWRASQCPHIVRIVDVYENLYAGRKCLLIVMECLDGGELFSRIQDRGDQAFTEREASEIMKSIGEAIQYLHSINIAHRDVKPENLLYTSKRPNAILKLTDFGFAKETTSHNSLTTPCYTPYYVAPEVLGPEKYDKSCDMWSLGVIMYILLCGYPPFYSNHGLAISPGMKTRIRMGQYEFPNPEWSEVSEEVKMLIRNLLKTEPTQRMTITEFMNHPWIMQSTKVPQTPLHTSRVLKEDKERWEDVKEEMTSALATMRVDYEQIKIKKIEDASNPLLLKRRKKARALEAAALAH
Method in brief: as §1

Sequence of p38a/PRAK (Q16539 whole entry): as the sequence (Q16539 whole entry) above

| Compound | IC50 (p38a/PRAK) | IC50 (p38a/MK2) |
| --- | --- | --- |
| [2H]C([2H])(Oc1cc(C)n(-c2cc(-n3cccc(C(C)(C)O)c3=O)ncc2C)c(=O)c1Cl)c1ncc(Cl)cc1F (single isomer, unassigned) [Example 21A, rel-3-chloro-4-[(5-chloro-3-fluoropyridin-2-yl)(2H2)methoxy]-2′-[3-(2-hydroxypropan-2-yl)-2-oxopyridin-1-yl]-5′,6-dimethyl-[1,4′-bipyridin]-2-one] | 5.01 µM | 0.00126 µM |
| Cc1cnc(-n2cncc(C(C)(C)O)c2=O)cc1-n1c(C)cc(OCc2ncc(F)cc2F)c(Cl)c1=O (single isomer, unassigned) [Example 10A, rel-3-chloro-4-[(3,5-difluoropyridin-2-yl)methoxy]-2′-[5-(2-hydroxypropan-2-yl)-6-oxopyrimidin-1-yl]-5′,6-dimethyl-[1,4′-bipyridin]-2-one] | 3.98 µM | 0.1 µM |
| [2H]C([2H])(Oc1cc(C)n(-c2cc(-n3ccnc(C(C)(C)O)c3=O)ncc2C)c(=O)c1Cl)c1ncc(C)cc1F (single isomer, unassigned) [Example 28A, rel-3-chloro-4-[(3-fluoro-5-methylpyridin-2-yl)(2H2)methoxy]-2′-[3-(2-hydroxypropan-2-yl)-2-oxopyrazin-1-yl]-5′,6-dimethyl-[1,4′-bipyridin]-2-one] | 3.16 µM | 0.001 µM |

Reference: patent publication US11685719B2, “Pyridinone MK2 inhibitors and uses thereof” (Xinthera, Inc., priority 2021, dated 2023)
